US11654096B2 (L'OREAL, priority 2017, dated 2023)
Values joined by “and” are separate entries in the source; they are usually repeats but may differ in a detail not shown here. Equal entries are not always repeated.

Tests used:
Format in all cases: cell-based
[1] = system: normal human epidermal keratinocytes (NHEKs); assay: Neosynthesis of total GAGs by NHEKs, [3H]-glucosamine incorporation; settings: for % Control / Mean (cpm) / [3H]-glucosamine (cpm): total GAGs, NHEKs; for [3H]-glucosamine (cpm): single replicates
Description: (§1) The effects of the compounds on the neosynthesis of total and sulfated glycosaminoglycans (GAGs) were studied on two cell models, normal human epidermal keratinocytes (NHEKs) and normal human dermal fibroblasts (NHDFs). The effects of these compounds were evaluated by measuring: • the incorporation of [3H]-glucosamine into the total GAGs neosynthesized by NHEKs and by NHDFs, • the incorporation of [35S]-sulfate into the sulfated GAGs neosynthesized by NHEKs and by NHDFs.
(§2) The keratinocytes were seeded into wells and cultured in culture medium for 24 hours. The medium was then replaced with culture medium containing or not containing (control) the compounds to be tested or the reference (4-nitrophenyl β-D-xylopyranoside at 300 μM), then the cells were incubated for 72 hours with the addition of the [3H]-glucosamine radioactive label (total GAGs) or of the [35S]-sulfate radioactive label (sulfated GAGs) for the final 24 hours of incubation.
(§3) At the end of the incubation, the glycosaminoglycans were extracted from the cells with a chaotropic buffer. The GAGs were then purified by ion exchange chromatography: adsorption of the anionic molecules on Q-Sepharose beads and desorption of the molecules of low or medium anionic nature, with a suitable solution.
(§4) The radioactivity incorporated into the molecules left on the support (GAGs, predominantly) was measured by liquid scintillation.
(§5) All the experimental conditions were performed in n=3.
(§6) The inter-group comparisons were performed using Student's non-paired two-sided t-test. The statistical analyses can be interpreted if n≥5; however, for n<5, the data calculated are provided only by way of indication.

[2] = system: normal human epidermal keratinocytes (NHEKs); assay: Neosynthesis of sulfated GAGs by NHEKs, [35S]-sulfate incorporation; settings: for % Control / Mean (cpm) / [35S]-Sulfate (cpm): sulfated GAGs, NHEKs; for [35S]-Sulfate (cpm): single replicates
Description: as §1, §2, §3, §4, §5, §6

[3] = system: normal human dermal fibroblasts (NHDFs); assay: Neosynthesis of total GAGs by NHDFs, [3H]-glucosamine incorporation; settings: for effect on the neosynthesis of the total GAGs by the NHDFs (in words): tested at 10 and 100 μM; for % Control / Mean (cpm) / [3H]-glucosamine (cpm): total GAGs, NHDFs; for [3H]-glucosamine (cpm): single replicates
Description: as §1
(§7) The fibroblasts were seeded into wells and cultured in culture medium for 24 hours. The medium was then replaced with culture medium containing or not containing (controt) the compounds to be tested or the reference (TGF-β at 10 ng/ml), then the cells were incubated for 72 hours with the addition of the [35S]-sulfate radioactive label (sulfated GAGs) or of the [3H]-glucosamine radioactive label (total GAGs) for the final 24 hours of incubation.
as §3, §4, §5, §6

[4] = system: normal human dermal fibroblasts (NHDFs); assay: Neosynthesis of sulfated GAGs by NHDFs, [35S]-sulfate incorporation; settings: for % Control / Mean (cpm) / [35S]-Sulfate (cpm): sulfated GAGs, NHDFs; for [35S]-Sulfate (cpm): single replicates; for effect on the neosynthesis of the sulfated GAGs by the NHDFs (in words): tested at 10 and 100 μM
Description: as §1, §7, §3, §4, §5, §6

Oc1cc(O)cc(/C=C/c2ccc(O[C@@H]3OC[C@@H](O)[C@H](O)[C@H]3O)cc2)c1 [Compound 2a, 4-[(E)-2-(3,5-dihydroxy-phenyl)ethenyl]phenyl β-D-xylopyranoside]
effect on the neosynthesis of the total GAGs by the NHEKs (in words) ([1]; tested at 1 and 10 μM): stimulated in a concentration-dependent manner | % Control ([1]; campaign 2, 1 μM): 120% | Mean (cpm) ([1]; campaign 2, 1 μM): 10215 cpm | [3H]-glucosamine (cpm) ([1]; campaign 2, 1 μM): 9472 cpm and 10133 cpm and 11041 cpm | % Control ([1]; campaign 2, 10 μM): 151% | Mean (cpm) ([1]; campaign 2, 10 μM): 12844 cpm | [3H]-glucosamine (cpm) ([1]; campaign 2, 10 μM): 11913 cpm and 12452 cpm and 14167 cpm | % Control ([2]; campaign 2, 1 μM): 114% | Mean (cpm) ([2]; campaign 2, 1 μM): 6073 cpm | [35S]-Sulfate (cpm) ([2]; campaign 2, 1 μM): 5974 cpm and 6365 cpm and 5879 cpm | % Control ([2]; campaign 2, 10 μM): 240% | Mean (cpm) ([2]; campaign 2, 10 μM): 12748 cpm | [35S]-Sulfate (cpm) ([2]; campaign 2, 10 μM): 11209 cpm and 13332 cpm and 13703 cpm | effect on the neosynthesis of the sulfated GAGs by the NHEKs (in words) ([2]; tested at 1 and 10 μM): stimulated in a concentration-dependent manner | effect on the neosynthesis of the total GAGs by the NHDFs (in words) [3]: stimulated in a concentration-dependent manner | % Control ([3]; campaign 2, 10 μM): 104% | Mean (cpm) ([3]; campaign 2, 10 μM): 1624 cpm | [3H]-glucosamine (cpm) ([3]; campaign 2, 10 μM): 1758 cpm and 1479 cpm and 1636 cpm | % Control ([3]; campaign 2, 100 μM): 126% | Mean (cpm) ([3]; campaign 2, 100 μM): 1973 cpm | [3H]-glucosamine (cpm) ([3]; campaign 2, 100 μM): 1958 cpm and 1959 cpm and 2003 cpm | % Control ([4]; campaign 2, 10 μM): 141% | Mean (cpm) ([4]; campaign 2, 10 μM): 795 cpm | [35S]-Sulfate (cpm) ([4]; campaign 2, 10 μM): 765 cpm and 835 cpm and 786 cpm | % Control ([4]; campaign 2, 100 μM): 533% | Mean (cpm) ([4]; campaign 2, 100 μM): 3015 cpm | [35S]-Sulfate (cpm) ([4]; campaign 2, 100 μM): 2858 cpm and 3230 cpm and 2958 cpm

OC[C@H]1O[C@@H](Oc2cc(O)cc(/C=C/c3ccc(O)cc3)c2)[C@H](O)[C@@H](O)[C@@H]1O [Polydatin]
effect on the neosynthesis of the total GAGs by the NHEKs (in words) ([1]; tested at 10 and 100 μM): did not modulate | % Control ([1]; campaign 1, 10 μM): 102% | Mean (cpm) ([1]; campaign 1, 10 μM): 13202 cpm | [3H]-glucosamine (cpm) ([1]; campaign 1, 10 μM): 13405 cpm and 13192 cpm and 13010 cpm | % Control ([1]; campaign 1, 100 μM): 90% | Mean (cpm) ([1]; campaign 1, 100 μM): 11660 cpm | [3H]-glucosamine (cpm) ([1]; campaign 1, 100 μM): 12222 cpm and 11510 cpm and 11248 cpm | % Control ([2]; campaign 1, 10 μM): 100% | Mean (cpm) ([2]; campaign 1, 10 μM): 6760 cpm | [35S]-Sulfate (cpm) ([2]; campaign 1, 10 μM): 6316 cpm and 6800 cpm and 7164 cpm | % Control ([2]; campaign 1, 100 μM): 119% | Mean (cpm) ([2]; campaign 1, 100 μM): 8043 cpm | [35S]-Sulfate (cpm) ([2]; campaign 1, 100 μM): 7007 cpm and 8365 cpm and 8756 cpm | effect on the neosynthesis of the sulfated GAGs by the NHEKs (in words) ([2]; tested at 10 and 100 μM): did not modulate | effect on the neosynthesis of the total GAGs by the NHDFs (in words) [3]: overall inhibited | % Control ([4]; campaign 1, 10 μM): 96% | Mean (cpm) ([4]; campaign 1, 10 μM): 1573 cpm | [35S]-Sulfate (cpm) ([4]; campaign 1, 10 μM): 1523 cpm and 1479 cpm and 1718 cpm | % Control ([4]; campaign 1, 100 μM): 78% | Mean (cpm) ([4]; campaign 1, 100 μM): 1287 cpm | [35S]-Sulfate (cpm) ([4]; campaign 1, 100 μM): 1290 cpm and 1317 cpm and 1255 cpm | effect on the neosynthesis of the sulfated GAGs by the NHDFs (in words) [4]: overall inhibited

Oc1ccc(C=Cc2cc(O)cc(O)c2)cc1 [Resveratrol]
effect on the neosynthesis of the total GAGs by the NHEKs (in words) ([1]; tested at 10 and 100 μM): inhibited, in a concentration-dependent manner | % Control ([1]; campaign 1, 10 μM): 64% | Mean (cpm) ([1]; campaign 1, 10 μM): 8328 cpm | [3H]-glucosamine (cpm) ([1]; campaign 1, 10 μM): 7566 cpm and 8537 cpm and 8880 cpm | % Control ([1]; campaign 1, 100 μM): 13% | Mean (cpm) ([1]; campaign 1, 100 μM): 1743 cpm | [3H]-glucosamine (cpm) ([1]; campaign 1, 100 μM): 1509 cpm and 1754 cpm and 1967 cpm | % Control ([1]; campaign 2, 1 μM): 113% | Mean (cpm) ([1]; campaign 2, 1 μM): 9628 cpm | [3H]-glucosamine (cpm) ([1]; campaign 2, 1 μM): 10734 cpm and 10012 cpm and 8137 cpm | % Control ([1]; campaign 2, 10 μM): 86% | Mean (cpm) ([1]; campaign 2, 10 μM): 7347 cpm | [3H]-glucosamine (cpm) ([1]; campaign 2, 10 μM): 6772 cpm and 7143 cpm and 8126 cpm | % Control ([2]; campaign 1, 10 μM): 77% | Mean (cpm) ([2]; campaign 1, 10 μM): 5254 cpm | [35S]-Sulfate (cpm) ([2]; campaign 1, 10 μM): 5238 cpm and 5506 cpm and 5018 cpm | % Control ([2]; campaign 1, 100 μM): 27% | Mean (cpm) ([2]; campaign 1, 100 μM): 1802 cpm | [35S]-Sulfate (cpm) ([2]; campaign 1, 100 μM): 1836 cpm and 1725 cpm and 1845 cpm | Mean (cpm) ([2]; campaign 2, 1 μM): 6530 cpm | [35S]-Sulfate (cpm) ([2]; campaign 2, 1 μM): 6885 cpm and 6817 cpm and 5888 cpm | % Control ([2]; campaign 2, 10 μM): 94% | Mean (cpm) ([2]; campaign 2, 10 μM): 4973 cpm | [35S]-Sulfate (cpm) ([2]; campaign 2, 10 μM): 5137 cpm and 4981 cpm and 4802 cpm | effect on the neosynthesis of the sulfated GAGs by the NHEKs (in words) ([2]; tested at 10 and 100 μM): inhibited, in a concentration-dependent manner | effect on the neosynthesis of the total GAGs by the NHDFs (in words) [3]: overall inhibited | % Control ([3]; campaign 2, 10 μM): 98% | Mean (cpm) ([3]; campaign 2, 10 μM): 1534 cpm | [3H]-glucosamine (cpm) ([3]; campaign 2, 10 μM): 1439 cpm and 1533 cpm and 1630 cpm | % Control ([3]; campaign 2, 100 μM): 86% | Mean (cpm) ([3]; campaign 2, 100 μM): 1339 cpm | [3H]-glucosamine (cpm) ([3]; campaign 2, 100 μM): 1253 cpm and 1360 cpm and 1404 cpm | % Control ([4]; campaign 1, 10 μM): 93% | Mean (cpm) ([4]; campaign 1, 10 μM): 1527 cpm | [35S]-Sulfate (cpm) ([4]; campaign 1, 10 μM): 1506 cpm and 1556 cpm and 1519 cpm | % Control ([4]; campaign 1, 100 μM): 62% | Mean (cpm) ([4]; campaign 1, 100 μM): 1019 cpm | [35S]-Sulfate (cpm) ([4]; campaign 1, 100 μM): 967 cpm and 1045 cpm and 1046 cpm | % Control ([4]; campaign 2, 10 μM): 101% | Mean (cpm) ([4]; campaign 2, 10 μM): 571 cpm | [35S]-Sulfate (cpm) ([4]; campaign 2, 10 μM): 613 cpm and 513 cpm and 586 cpm | % Control ([4]; campaign 2, 100 μM): 54% | Mean (cpm) ([4]; campaign 2, 100 μM): 305 cpm | [35S]-Sulfate (cpm) ([4]; campaign 2, 100 μM): 355 cpm and 283 cpm and 276 cpm | effect on the neosynthesis of the sulfated GAGs by the NHDFs (in words) [4]: overall inhibited

O=[N+]([O-])c1ccc(O[C@@H]2OC[C@@H](O)[C@H](O)[C@H]2O)cc1 [4-Nitrophenyl β-D-xylopyranoside, 4-nitrophenyl β-D-xylopyranoside]
% Control ([1]; campaign 1, 300 μM): 206% | Mean (cpm) ([1]; campaign 1, 300 μM): 26611 cpm | [3H]-glucosamine (cpm) ([1]; campaign 1, 300 μM): 26835 cpm and 26438 cpm and 26560 cpm | % Control ([1]; campaign 2, 300 μM): 243% | Mean (cpm) ([1]; campaign 2, 300 μM): 20694 cpm | [3H]-glucosamine (cpm) ([1]; campaign 2, 300 μM): 22239 cpm and 20953 cpm and 18891 cpm | % Control ([2]; campaign 1, 300 μM): 922% | Mean (cpm) ([2]; campaign 1, 300 μM): 62566 cpm | [35S]-Sulfate (cpm) ([2]; campaign 1, 300 μM): 60267 cpm and 63396 cpm and 64036 cpm | % Control ([2]; campaign 2, 300 μM): 1029% | Mean (cpm) ([2]; campaign 2, 300 μM): 54615 cpm | [35S]-Sulfate (cpm) ([2]; campaign 2, 300 μM, listed as 4-Nitrophenyl B-D-xylopyranoside): 54440 cpm and 52841 cpm and 56564 cpm

TGF-β: reference for the fibroblast assays, at 10 ng/ml
% Control ([3]; campaign 2, 10 ng/ml): 331% | Mean (cpm) ([3]; campaign 2, 10 ng/ml): 5167 cpm | [3H]-glucosamine (cpm) ([3]; campaign 2, 10 ng/ml): 5999 cpm and 4173 cpm and 5328 cpm | % Control ([4]; campaign 1, 10 ng/ml): 208% | Mean (cpm) ([4]; campaign 1, 10 ng/ml): 3433 cpm | [35S]-Sulfate (cpm) ([4]; campaign 1, 10 ng/ml): 3397 cpm and 3492 cpm and 3411 cpm | % Control ([4]; campaign 2, 10 ng/ml): 257% | Mean (cpm) ([4]; campaign 2, 10 ng/ml): 1452 cpm | [35S]-Sulfate (cpm) ([4]; campaign 2, 10 ng/ml): 1471 cpm and 1482 cpm and 1403 cpm
